# Measured values reported in US11648254B2 (Kumquat Biosciences Inc., priority 2021, dated 2023).
# Read-outs that look alike come from different tables or passages of the source.
# What was measured:
# [1] = test system: MIA PaCa-2 cells (K-Ras G12C); assay: Ras-SOS cellular growth inhibition assay (CellTiter-Glo, 3D); assay type: cell-based; conditions: Homo sapiens
# Summary of the method: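 MIA PaCa-2 cells grown in ultra-low-attachment plates (3D) in DMEM/Ham's F12 with 10% FCS and 2.5% horse serum, treated the day after seeding with a 9-point 3-fold compound series for about 5 days. Viability by CellTiter-Glo luminescence; IC50 from four-parameter fit.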
# [2] = In vitro plasma protein binding (PPB); assay type: in vitro ADME; conditions: percentage of free/unbound compound
# [3] = Metabolic (microsomal) stability assay; assay type: in vitro ADME; conditions: mouse liver microsomes, T1/2; read-out: DMPK-invitro-metabolic Stability (Mouse T1/2)
# Excerpt: Example 12: Metabolic (Microsomal) Stability Assay
# SOS1 = SOS1 (Homo sapiens (Human), UniProt Q07889); assay: Ras-SOS interaction assay (HTRF); assay type: biochemical
# [4] = test system: NCI-H1975 cells (EGFR T790M L858R); assay: EGFR-SOS cellular inhibition assay (CellTiter-Glo, 3D); assay type: cell-based; conditions: Homo sapiens
# [5] = MIA PaCa-2, 120 h, MIA PaCa-2, 3D proliferation, about 5 days, read-out: Bio-Cell-Prolif-3D (MiaPaca2 IC50)
# [6] = MIA PaCa-2, MIA PaCa-2, read-out: IC50 in inhibiting MIA PaCa-2 cell growth
# [7] = K-RasG13D utilized, read-out: IC50 inhibition of SOS
# [8] = K-RasG13D, read-out: IC50 value against SOS1
# [9] = 120 h, NCI-H1975, 3D proliferation, about 5 days, read-out: Bio-Cell-Prolif-3D (H1975 IC50)
# [10] = NCI-H1975, EGFR T790M L858R, read-out: IC50 in inhibiting growth of NCI-H1975 cell line
# Sequence of SOS1 (Q07889 564-1049): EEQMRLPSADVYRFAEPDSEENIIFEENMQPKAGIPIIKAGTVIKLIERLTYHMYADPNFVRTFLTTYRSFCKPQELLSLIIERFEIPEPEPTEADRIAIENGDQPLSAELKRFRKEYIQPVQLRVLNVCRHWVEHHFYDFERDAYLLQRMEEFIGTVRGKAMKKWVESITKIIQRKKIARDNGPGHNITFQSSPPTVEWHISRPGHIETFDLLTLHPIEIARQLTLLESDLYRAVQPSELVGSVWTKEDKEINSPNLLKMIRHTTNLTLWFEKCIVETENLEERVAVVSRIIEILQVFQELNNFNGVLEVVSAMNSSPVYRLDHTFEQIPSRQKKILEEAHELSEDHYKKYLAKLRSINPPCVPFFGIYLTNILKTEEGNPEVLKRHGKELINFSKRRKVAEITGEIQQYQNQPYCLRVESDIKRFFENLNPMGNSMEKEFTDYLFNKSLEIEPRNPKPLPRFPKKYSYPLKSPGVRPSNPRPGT
Compound,"IC50 [1, 5] [nM]","IC50 [1, 6] [nM]",DMPK-invitro-PPB (Mouse Unbound) [%] [2] [%],half-life [3] [min],IC50 (SOS1; [7]) [nM],IC50 (SOS1; [8]) [nM],"IC50 [4, 9] [nM]","IC50 [4, 10] [nM]"
"COc1nc2nc(C)nc(N[C@H](C)c3cccc(C(F)(F)C(C)(C)O)c3F)c2cc1C1(C#N)CC1 [Compound 207, (R)-1-(4-((1-(3-(1,1-difluoro-2-hydroxy-2-methylpropyl)-2-fluorophenyl)ethyl)amino)-7-methoxy-2-methylpyrido[2,3-d]pyrimidin-6-yl)cyclopropane-1-carbonitrile]",≤ 1000,–,0.06,> 200,< 100,< 50,≤ 1000,< 500
"COc1nc2nc(C)nc(N[C@H](C)c3cccc(C(F)(F)[C@H](C)O)c3F)c2cc1C1(C#N)CC1 [Compound 256, 1-(4-(((R)-1-(3-((S)-1,1-difluoro-2-hydroxypropyl)-2-fluorophenyl)ethyl)amino)-7-methoxy-2-methylpyrido[2,3-d]pyrimidin-6-yl)cyclopropane-1-carbonitrile]",≤ 1000,< 500,0.77,37.2,< 100,< 50,≤ 1000,< 500
"Cc1nc(N[C@H](C)c2cccc(C(F)F)c2F)c2cc(C3(C#N)CC3)c(Cl)nc2n1 [Compound 352, (R)-1-(7-chloro-4-((1-(3-(difluoromethyl)-2-fluorophenyl)ethyl)amino)-2-methylpyrido[2,3-d]pyrimidin-6-yl)cyclopropane-1-carbonitrile]",≤ 1000,< 500,–,31,< 100,< 50,≤ 1000,< 500
"C[C@@H](Nc1ncnc2nc(Cl)c(C3(C#N)CC3)cc12)c1cccc(C(F)(F)CO)c1F [Compound 362, (R)-1-(7-chloro-4-((1-(3-(1,1-difluoro-2-hydroxyethyl)-2-fluorophenyl)ethyl)amino)pyrido[2,3-d]pyrimidin-6-yl)cyclopropane-1-carbonitrile]",1000 to 10000,–,–,49,< 100,< 50,≤ 1000,< 500
"C[C@@H](Nc1ncnc2nc(Cl)c(C3(C#N)CC3)cc12)c1cccc(C(F)(F)C(C)(C)O)c1 [Compound 363, (R)-1-(7-chloro-4-((1-(3-(1,1-difluoro-2-hydroxy-2-methylpropyl)phenyl)ethyl)amino)pyrido [2,3-d]pyrimidin-6-yl)cyclopropane-1-carbonitrile]",≤ 1000,< 500,–,> 200,< 100,< 50,≤ 1000,< 500
"C[C@@H](Nc1ncnc2nc(OC3COC3)c(C3(C#N)CC3)cc12)c1cccc(C(F)F)c1F [Compound 400, (R)-1-(4-((1-(3-(difluoromethyl)-2-fluorophenyl)ethyl)amino)-7-(oxetan-3-yloxy)pyrido[2,3-d]pyrimidin-6-yl)cyclopropane-1-carbonitrile]",≤ 1000,< 500,–,29.4,100 to 1000,–,≤ 1000,–
"C[C@@H](Nc1ncnc2nc(O[C@@H]3CCOC3)c(C3(C#N)CC3)cc12)c1cccc(C(F)F)c1F [Compound 409, 1-(4-(((R)-1-(3-(difluoromethyl)-2-fluorophenyl)ethyl)amino)-7-(((R)-tetrahydrofuran-3-yl)oxy)pyrido[2,3-d]pyrimidin-6-yl)cyclopropane-1-carbonitrile]",≤ 1000,–,–,5.6,100 to 1000,–,≤ 1000,< 500

# More lines, now with the values ahead:
"IC50 [1, 5] [nM]","IC50 [1, 6] [nM]",DMPK-invitro-PPB (Mouse Unbound) [%] [2] [%],half-life [3] [min],IC50 (SOS1; [7]) [nM],IC50 (SOS1; [8]) [nM],"IC50 [4, 9] [nM]","IC50 [4, 10] [nM]",Compound
≤ 1000,< 500,0.11,198,< 100,< 50,≤ 1000,< 500,"COc1nc2nc(C)nc(N[C@H](C)c3cccc(C(F)(F)C(C)(C)O)c3)c2cc1C1(C#N)CC1 [Compound 175, (R)-1-(4-((1-(3-(1,1-difluoro-2-hydroxy-2-methylpropyl)phenyl)ethyl)amino)-7-methoxy-2-methylpyrido[2,3-d]pyrimidin-6-yl)cyclopropane-1-carbonitrile]"
≤ 1000,–,–,1.5,100 to 1000,–,≤ 1000,–,"Cc1nc(N[C@H](C)c2cccc(C(F)F)c2F)c2cc(C3(C#N)CC3)c(O[C@@H]3CCOC3)nc2n1 [Compound 298, 1-(4-(((R)-1-(3-(difluoromethyl)-2-fluorophenyl)ethyl)amino)-2-methyl-7-(((R)-tetrahydrofuran-3-yl)oxy)pyrido[2,3-d]pyrimidin-6-yl)cyclopropane-1-carbonitrile]"
1000 to 10000,–,–,> 200,< 100,< 50,≤ 1000,< 500,"C[C@@H](Nc1ncnc2nc(Cl)c(C3(C#N)CC3)cc12)c1cccc(C(F)(F)C(C)(C)O)c1F [Compound 361, (R)-1-(7-chloro-4-((1-(3-(1,1-difluoro-2-hydroxy-2-methylpropyl)-2-fluorophenyl)ethyl)amino)pyrido[2,3-d]pyrimidin-6-yl)cyclopropane-1-carbonitrile]"
≤ 1000,–,–,> 200,< 100,< 50,≤ 1000,< 500,"C[C@@H](Nc1ncnc2nc(Cl)c(C3(C#N)CC3)cc12)c1cccc(C(F)(F)[C@@H](C)O)c1F [Compound 365, 1-(7-chloro-4-(((R)-1-(3-((R)-1,1-difluoro-2-hydroxypropyl)-2-fluorophenyl)ethyl)amino)pyrido [2,3-d]pyrimidin-6-yl)cyclopropane-1-carbonitrile]"
≤ 1000,< 500,–,19.3,< 100,–,≤ 1000,–,"Cc1nc(N[C@H](C)c2cccc(C(F)F)c2F)c2cc(C3(C#N)CC3)c(OC3COC3)nc2n1 [Compound 402, (R)-1-(4-((1-(3-(difluoromethyl)-2-fluorophenyl)ethyl)amino)-2-methyl-7-(oxetan-3-yloxy)pyrido[2,3-d]pyrimidin-6-yl)cyclopropane-1-carbonitrile]"
≤ 1000,–,–,> 200,< 100,< 50,≤ 1000,< 500,"C[C@@H](Nc1ncnc2nc(OC3CN(C)C3)c(C3(C#N)CC3)cc12)c1cccc(C(F)F)c1F [Compound 405, (R)-1-(4-((1-(3-(difluoromethyl)-2-fluorophenyl)ethyl)amino)-7-((1-methylazetidin-3-yl)oxy)pyrido[2,3-d]pyrimidin-6-yl)cyclopropane-1-carbonitrile]"
≤ 1000,–,–,> 200,< 100,< 50,≤ 1000,< 500,"C[C@H](O)C(F)(F)c1cccc([C@@H](C)Nc2ncnc3nc(Cl)c(C4(C#N)CC4)cc23)c1F [Compound 417, 1-(7-chloro-4-(((R)-1-(3-((S)-1,1-difluoro-2-hydroxypropyl)-2-fluorophenyl)ethyl)amino)pyrido[2,3-d]pyrimidin-6-yl)cyclopropane-1-carbonitrile]"
